Source: article PMC3960879 (Biology, 2013)
Like-named read-outs stand apart in the source and are kept apart here.

Columns and labels:
F17eG lectin domain = assay: CFG mammalian printed glycan array version 2 (experiment 400), F17eG; format: binding, Escherichia coli; settings: CFG glycan array version 2; F17G at 200 µg/mL; SEM in parentheses
Source text: (§1) The slide was dried under a stream of nitrogen.

F17aG lectin domain = F17aG lectin domain (Escherichia coli, UniProt Q99003); settings: CFG glycan array version 2; F17G at 200 µg/mL; SEM in parentheses
Chain of F17aG lectin domain (Q99003 23-199): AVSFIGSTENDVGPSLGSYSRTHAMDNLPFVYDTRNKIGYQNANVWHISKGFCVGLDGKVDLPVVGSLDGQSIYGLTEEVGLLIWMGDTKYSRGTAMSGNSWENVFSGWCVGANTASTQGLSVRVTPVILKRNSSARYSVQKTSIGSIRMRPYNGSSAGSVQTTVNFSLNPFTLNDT
Protocol: (§2) A microarray presenting 264 different glycans (mammalian printed array version 2) was used to evaluate if the F17G variant lectin domains differ in the range of glycan receptors that they recognize, thereby establishing tropism. The microarray was set up within the Consortium for Functional Glycomics (CFG) ([20], and supplemental data). Binding of F17G (200 µg/mL) was detected using anti-F17G polyclonal rabbit IgG (10 µg/mL), followed by fluorescently labelled goat anti-rabbit polyclonal antibodies (IgG-488, 5 µg/mL).
(§3) A microarray presenting 264 different glycans (mammalian printed array version 2 from the CFG, experiment 400) was used to evaluate whether the F17G variant lectin domains differ in the range of glycan receptors that they can recognize, thereby establishing strain-dependent tropism. […] The glycan array screening has been repeated for F17aG only on printed array version 4.1 (experiment 2053) (Figure 1).
(§4) Printed array version 2 at the Consortium for Functional Glycomics was used for glycan array screening of the variant F17G receptor binding domains. Slides were printed, with six replicates for each glycan, using glycan spotting concentrations of 100 μM, at the Consortium Carbohydrate Synthesis/Protein Expression Core D located at the Scripps Research Institute onto Schott Nexterion H slides (Schott Cat. No. 1070936B). Slide conditioning: preprinted slides were soaked in deionized water for 5 minutes at room temperature and dried under a stream of nitrogen. TSM buffer (20 mM Tris-HCl, pH 7.4, or MOPS 20 mM; 150 mM NaCl; 2 mM CaCl2, 2 mM MgCl2) was used as wash buffer (TSM buffer + 0.05% Tween 20) or binding buffer (TSM buffer + 0.05% Tween 20 + 1% BSA). (1) F17G was diluted to 200 μg/mL (Figure 1) in TSM binding buffer. (2) 50 μL of F17G was applied to the printed surface and coverslipped. (3) The slide was incubated, protected from light, in a humidified chamber for 1 hour at RT. (4) The slide was washed once in TSM wash buffer. 50 μL of the anti-F17G (10 μg/mL) polyclonal rabbit IgG were applied, coverslipped and incubated for 1 h at RT. (5) The slide was washed once in TSM wash buffer. Fifty μL of fluorescently labelled secondary goat anti-rabbit polyclonal antibodies (IgG-488, 5 µg/mL) were applied, coverslipped and incubated for 1 h at RT. (6) Slide was removed, followed by the coverslip, and washed for 10 s each in TSM wash buffer, TSM wash buffer lacking Tween 20, and deionized water. The slide was dried under a stream of nitrogen. (7) The binding image was read in a Perkin Elmer Microscanarray XL4000 scanner and tiff file of image stored. (8) Image analysis was performed using Imagene (V.6) image analysis software. (9) Raw data results files were generated in Excel format and uploaded to the Consortium database as .dat files. (10) Imagene data was uploaded to the database as .txt files.

F17bG lectin domain = F17bG lectin domain (Escherichia coli, UniProt Q47200); settings: CFG glycan array version 2; F17G at 200 µg/mL; SEM in parentheses
Chain of F17bG lectin domain (Q47200 23-199): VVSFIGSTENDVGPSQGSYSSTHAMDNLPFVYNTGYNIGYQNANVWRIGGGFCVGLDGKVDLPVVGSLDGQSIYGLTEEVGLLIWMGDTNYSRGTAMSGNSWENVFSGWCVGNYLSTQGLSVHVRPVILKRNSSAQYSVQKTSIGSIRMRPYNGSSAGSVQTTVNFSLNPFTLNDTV
Protocol: as §2, §3, §4

F17dG lectin domain = F17dG lectin domain (Escherichia coli, UniProt Q47199); settings: CFG glycan array version 2; F17G at 200 µg/mL; SEM in parentheses
Chain of F17dG lectin domain (Q47199 23-199): as the sequence (Q99003 23-199) above, with L16P, D33N, R35G, K37N, H47R, K90N counted along it
Protocol: as §2, §3, §4

F17fG lectin domain = assay: CFG mammalian printed glycan array version 2 (experiment 400), F17fG; format: binding, Escherichia coli; settings: CFG glycan array version 2; F17G at 200 µg/mL; SEM in parentheses
Source text: as §1

[1] = molecular target: T1, F17aG receptor-binding domain (Escherichia coli, UniProt Q99003); assay: biochemical; settings: SPR steady state, 25 °C, pH 7.4
T1 construct: variants of the lectin domains with oligolysine (4Lys) tails have been constructed; made in house; host or cells: E. coli (periplasm)
T1 sequence (Q99003 23-199): as the sequence (Q99003 23-199) above
Protocol: The affinity profiles were determined by surface plasmon resonance (SPR) measurements using a BiaCore 3000 instrument (GE Healthcare). […] The proteins were covalently immobilized on CM5 sensor chips (Biacore AB) to an average density of 2000 RU (resonance units in pg/mm^2). On each chip, one flow cell was coated with a camel single domain antibody for use as a reference cell. The other three flow cells (Fc2, Fc3 and Fc4) were coated with three different F17G variants. Carbohydrate concentrations ranging from 10 µM to 10 mM in running buffer (20 mM Hepes, pH 7.4; 150 mM NaCl; 3 mM EDTA and 0.005% surfactant Tween 20) were incubated for one minute on all flow cells simultaneously, at 25 °C and at a flow rate of 30 µL/min. Complete dissociation of the carbohydrates in running buffer was verified before starting a new binding cycle. All binding cycles were performed in duplicate, including a zero concentration cycle (injection of pure running buffer). All analysis was done using the BIAeval software. In each case the equilibrium resonance signal from the reference cell was subtracted from that of the various F17G flow cells (2-1, 3-1, 4-1). A Langmuir binding isotherm with a 1:1 stoichiometry was fitted to the data, from which the equilibrium dissociation constants, Kd, were obtained.

[2] = good fit for at least three related experiments, read-out: dissociation constant Kd, F17aG
[3] = read-out: Affinity range (Kd class), F17aG

Row | Molecule | Relative Fluorescence Units (RFU), averaged over six replicates, F17eG (F17eG lectin domain) | Relative Fluorescence Units (RFU), averaged over six replicates, F17aG (F17aG lectin domain) | Relative Fluorescence Units (RFU), averaged over six replicates, F17bG (F17bG lectin domain) | Relative Fluorescence Units (RFU), averaged over six replicates, F17dG (F17dG lectin domain) | Relative Fluorescence Units (RFU), averaged over six replicates, F17fG (F17fG lectin domain) | Kd [1, 2] | Kd [1, 3]
1 | GlcNAcβ1,3Galβ1,4Glcβ-Sp0 | 54,005 (5,715) RFU | 57,013 (5,191) RFU | 13,149 (2,286) RFU | 29,181 (3,281) RFU | 26,336 (7,255) RFU | – | –
2 | GlcNAcβ1,4Galβ1,4GlcNAcβ-Sp8 | 39,794 (6,245) RFU | 12,499 (1,921) RFU | 13,001 (2,039) RFU | 1,056 (190) RFU | 7,176 (2,338) RFU | – | –
3 | NCCCO[C@@H]1O[C@H](CO)[C@@H](O)[C@H](O)[C@H]1N [GlcNH2β-Sp8] | 548 (256) RFU | 554 (117) RFU | 7,281 (1,506) RFU | 1,950 (1,358) RFU | 1,385 (464) RFU | – | –
4 | Galβ1,4GlcNAcβ1,3Galβ1,4Glcβ-Sp0 | 3,942 (857) RFU | 391 (24) RFU | 1,090 (262) RFU | 919 (375) RFU | 663 (146) RFU | – | –
5 | CO[C@@H]1O[C@H](CO)[C@@H](O)[C@H](O)[C@H]1NC(C)=O [Me β N-acetylglucosamine] | – | – | – | – | – | 1.2 mM | 1 to 10 mM
6 | (GlcNAcβ1,3(GlcNAcβ1,6)GlcNAcβ1,4)GlcNAc-Sp8 | 50,775 (6,375) RFU | 20,305 (2,023) RFU | 6,148 (1,367) RFU | 8,080 (1,518) RFU | 2,992 (992) RFU | – | –
7 | GlcNAcβ1,3Galβ1,4GlcNAcβ1,3Galβ1,4GlcNAcβ-Sp0 | 43,425 (4,065) RFU | 10,917 (811) RFU | 7,563 (2,744) RFU | 3,599 (772) RFU | 4,334 (856) RFU | – | –
8 | GlcNAcβ1,3(GlcNAcβ1,6)GalNAcα-Sp8 | 46,840 (6,520) RFU | 35,858 (4,079) RFU | 12,183 (1,524) RFU | 23,756 (2,105) RFU | – | – | –
9 | CO[C@H]1O[C@H](CO)[C@@H](O)[C@H](O)[C@H]1NC(C)=O [Me α N-acetylglucosamine] | – | – | – | – | – | 9.8 mM | –
10 | CC(=O)N[C@H]1[C@H](O[C@H]2[C@@H](O)[C@@H](CO)O[C@@H](OCCCN)[C@@H]2O)O[C@H](CO)[C@@H](O)[C@@H]1O [GlcNAcβ1,3Galβ-Sp8] | 38,836 (5,631) RFU | 32,288 (4,175) RFU | 16,310 (1,907) RFU | 16,277 (9,959) RFU | 27,648 (1,137) RFU | – | –
11 | Neu5Acα2,3(Neu5Acα2,6)GalNAcα-Sp8 | 1,229 (1,162) RFU | 4,527 (4,043) RFU | 4,331 (1,760) RFU | 1,388 (1,162) RFU | 1,717 (229) RFU | – | –
12 | CC(=O)N[C@H]1[C@H](OCCCN)O[C@H](CO)[C@@H](O[C@@H]2O[C@H](CO[C@@H]3O[C@H](CO)[C@@H](O)[C@H](O)[C@H]3NC(C)=O)[C@H](O)[C@H](O[C@@H]3O[C@H](CO)[C@@H](O)[C@H](O)[C@H]3NC(C)=O)[C@H]2O)[C@@H]1O [GlcNAcβ1,3(GlcNAcβ1,6)Galβ1,4GlcNAcβ-Sp8] | 41,907 (4,694) RFU | 44,391 (3,949) RFU | 21,630 (2,490) RFU | 17,195 (3,442) RFU | 37,083 (5,973) RFU | – | –
13 | GlcNAcβ1,4(GlcNAcβ1,6)GalNAcα-Sp8 | 38,200 (2,394) RFU | 4,520 (2,808) RFU | 12,960 (1,692) RFU | 1,680 (92) RFU | 19,830 (4,279) RFU | – | –
14 | CC(=O)N[C@H]1[C@H](O[C@H]2[C@@H](O)[C@@H](CO)O[C@@H](O[C@H]3[C@H](O)[C@@H](O)C(O)O[C@@H]3CO)[C@@H]2O)O[C@H](CO)[C@@H](O)[C@@H]1O[C@@H]1O[C@H](CO)[C@H](O)[C@H](O)[C@H]1O[C@@H]1O[C@@H](C)[C@@H](O)[C@@H](O)[C@@H]1O (stereo partly shown) [Fucα1,2Galβ1,3GlcNAcβ1,3Galβ1,4Glc] | – | – | – | – | – | – | > 100 mM
15 | GlcNAcβ1,6(Galβ1,3)GalNAcα-Sp8 | – | 12,541 (1,115) RFU | 6,017 (587) RFU | 3,492 (658) RFU | 3,206(997) RFU | – | –
16 | CC(=O)N[C@H]1C(O)O[C@H](CO)[C@H](O)[C@@H]1O[C@@H]1O[C@H](CO)[C@H](O)[C@H](O)[C@H]1O (stereo partly shown) [Galβ1,3GalNAc] | – | – | – | – | – | – | 10 to 100 mM
17 | GalNAcβ1,3GalNAcα-Sp8 | 50,791 (5,749) RFU | – | 17,169 (4,228) RFU | 11,034 (1204) RFU | 10,691 (3,009) RFU | – | –
18 | CC(=O)N[C@H]1[C@H](O[C@H]2[C@@H](O)[C@@H](CO)O[C@@H](O[C@H]3[C@H](O)[C@@H](O)C(O)O[C@@H]3CO)[C@@H]2O)O[C@H](CO)[C@@H](O[C@@H]2O[C@H](CO)[C@H](O)[C@H](O)[C@H]2O)[C@@H]1O (stereo partly drawn) [Galβ1,4GlcNAcβ 1,3Gal β1,4Glc] | – | – | – | – | – | – | 10 to 100 mM
19 | Gal β1,4 GlcNAc | – | – | – | – | – | – | 1 to 10 mM
20 | COc1ccc(O[C@@H]2O[C@H](CO)[C@@H](O[C@@H]3O[C@H](CO)[C@H](O)[C@H](O)[C@H]3NC(C)=O)[C@H](O)[C@H]2NC(C)=O)cc1 [GalNAcβ1,4GlcNAcβ1-methoxy phenyl] | – | – | – | – | – | – | 1 to 10 mM
